Molecular target: Beta-secretase 1 (Homo sapiens, UniProt P56817)
Experiment: Biochemical Assay
Conditions: pH 4.5; 37 °C
Experimental: Briefly, the assay was carried out by incubation of the substrate peptide (5 μM), BACE1 enzyme (550 ng/mL) that was expressed and purified from insect expression system and varied concentrations of compounds at pH 4.5. After 1 h incubation at 37°C, stop buffer (3 M sodium acetate) was introduced into the reaction mixture to stop the reaction. Finally, the fluorescence intensity was measured on a TECAN GENios reader (Tecan) at room temperature with excitation at 420 nm and emission at 530 nm.

Beta-secretase 1, sequence (P56817 whole entry): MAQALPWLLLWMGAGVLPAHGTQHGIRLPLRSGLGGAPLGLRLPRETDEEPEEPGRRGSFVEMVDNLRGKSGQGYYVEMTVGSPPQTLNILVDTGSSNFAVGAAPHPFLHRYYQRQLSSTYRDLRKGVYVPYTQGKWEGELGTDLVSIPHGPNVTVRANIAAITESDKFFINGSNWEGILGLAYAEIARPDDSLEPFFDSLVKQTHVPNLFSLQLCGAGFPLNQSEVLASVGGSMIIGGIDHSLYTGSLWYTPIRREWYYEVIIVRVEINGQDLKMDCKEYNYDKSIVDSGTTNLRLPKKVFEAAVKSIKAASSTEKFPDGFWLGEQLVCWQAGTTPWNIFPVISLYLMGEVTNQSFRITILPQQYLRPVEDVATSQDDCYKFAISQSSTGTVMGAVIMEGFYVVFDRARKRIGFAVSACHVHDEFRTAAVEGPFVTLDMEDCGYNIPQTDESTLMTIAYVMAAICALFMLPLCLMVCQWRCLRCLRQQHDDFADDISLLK

Row | IC50 [µM] | Structure (SMILES)
1 | 11.4 | O=C(/C=C/c1ccccc1Cl)c1ccc(O)cc1O
2 | 1.94 | O=C(/C=C/c1cc(O)ccc1O)c1ccc(O)cc1O [(E)-1-(2,4-dihydroxyphenyl)-3-(2,5-dihydroxyphenyl)-2-propen-1-one (19)]
3 | 1.71 | O=C(/C=C/c1c(O)cccc1O)c1ccc(O)cc1O [(E)-1-(2,4-dihydroxyphenyl)-3-(2,6-dihydroxyphenyl)-2-propen-1-one (20)]
4 | 2.45 | O=C(/C=C/c1ccccc1O)c1ccc(O)cc1O [2,2'',4''-Trihydroxychalcone]
5 | 0.27 | O=C(/C=C/c1cccc(O)c1O)c1ccc(O)cc1O [(E)-1-(2,4-dihydroxyphenyl)-3-(2,3-dihydroxyphenyl)-2-propen-1-one (17)]
6 | 2.08 | O=C(/C=C/c1cc(O)cc(O)c1)c1ccc(O)cc1O [(E)-1-(2,4-dihydroxyphenyl)-3-(3,5-dihydroxyphenyl)-2-propen-1-one (22)]
7 | 11.8 | O=C(/C=C/c1ccccc1O)c1ccc(O)c(O)c1 [(E)-1-(3,4-dihydroxyphenyl)-3-(2-hydroxyphenyl)-2-propen-1-one (15)]
8 | 19.4 | O=C(/C=C/c1ccccc1O)c1cc(O)cc(O)c1 [(E)-1-(3,5-dihydroxyphenyl)-3-(2-hydroxyphenyl)-2-propen-1-one (16)]
9 | > 60 | O=C(/C=C/c1ccccc1[N+](=O)[O-])c1ccc(O)cc1O [(E)-1-(2,4-dihydroxyphenyl)-3-(2-nitrophenyl)-2-propen-1-one (7)]
10 | 41.8 | O=C(/C=C/c1ccccc1O)c1cc(O)ccc1O
11 | > 60 | O=C(/C=C/c1ccccc1O)c1ccccc1 [Chalcone, 1]
12 | 30.4 | O=C(/C=C/c1ccccc1O)c1cccc(O)c1 [(E)-1-(3-hydroxyphenyl)-3-(2-hydroxyphenyl)-2-propen-1-one (10)]
13 | 8.03 | O=C(/C=C/c1cccc(O)c1)c1ccc(O)cc1O [(E)-3,2'',4''-Trihydroxychalcone]
14 | 15.6 | O=C(/C=C/c1ccccc1O)c1c(O)cccc1O [(E)-1-(2,6-dihydroxyphenyl)-3-(2-hydroxyphenyl)-2-propen-1-one (14)]
15 | 0.62 | O=C(/C=C/c1ccc(O)cc1O)c1ccc(O)cc1O [2,2',4,4'-tetrahydroxychalcone]
16 | 2.37 | O=C(/C=C/c1ccc(O)c(O)c1)c1ccc(O)cc1O [(E)-3-(3,4-Dihydroxy-phenyl)-1-(2,4-dihydroxy-phenyl)-propenone]
17 | > 60 | O=C(/C=C/c1ccccc1O)c1ccccc1O
18 | 58.1 | O=C(/C=C/c1ccccc1O)c1ccc(O)cc1 [(E)-1-(4-hydroxyphenyl)-3-(2-hydroxyphenyl)-2-propen-1-one (11)]
19 | 2.63 | COc1ccccc1/C=C/C(=O)c1ccc(O)cc1O [(E)-1-(2,4-dihydroxyphenyl)-3-(2-methoxyphenyl)-2-propen-1-one (4)]
20 | 21.8 | O=C(/C=C/c1ccccc1O)c1cccc(O)c1O [(E)-1-(2,3-dihydroxyphenyl)-3-(2-hydroxyphenyl)-2-propen-1-one (12)]
21 | > 60 | C=CCOc1ccccc1/C=C/C(=O)c1ccc(O)cc1O
